Counter-ions that a name gives are not always drawn.

For one data set, the target named is T1, δ-opioid receptor (Mus musculus, UniProt P32300).
T1 construct: performed on mouse brain homogenates; from tissue; host or cells: mouse brain membranes / homogenates
As to the kind of experiment: biochemical. It is filed as binding.

The target of another data set is T2, μ-opioid receptor (Mus musculus, UniProt P42866).
T2 construct: performed on mouse brain homogenates in the presence of ^3H-DAMGO for μ-receptor; from tissue; host or cells: mouse brain membranes / homogenates
The data set can be described thus: biochemical. It is filed as binding.

Another data set has as its target T3, κ-opioid receptor (Mus musculus, UniProt P33534).
T3 construct: performed on mouse brain homogenates; from tissue; host or cells: mouse brain membranes / homogenates
As to the kind of experiment: biochemical. It is filed as binding.

T3 sequence (P33534 whole entry): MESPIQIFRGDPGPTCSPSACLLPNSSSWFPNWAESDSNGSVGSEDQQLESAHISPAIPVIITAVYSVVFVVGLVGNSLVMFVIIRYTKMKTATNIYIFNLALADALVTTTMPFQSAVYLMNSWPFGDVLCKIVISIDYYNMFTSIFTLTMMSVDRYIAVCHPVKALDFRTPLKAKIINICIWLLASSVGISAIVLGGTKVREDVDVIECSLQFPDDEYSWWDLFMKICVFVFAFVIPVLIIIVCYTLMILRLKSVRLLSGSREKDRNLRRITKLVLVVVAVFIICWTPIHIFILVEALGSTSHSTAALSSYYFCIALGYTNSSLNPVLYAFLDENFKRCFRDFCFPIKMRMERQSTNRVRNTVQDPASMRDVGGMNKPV
T2 sequence (P42866 whole entry): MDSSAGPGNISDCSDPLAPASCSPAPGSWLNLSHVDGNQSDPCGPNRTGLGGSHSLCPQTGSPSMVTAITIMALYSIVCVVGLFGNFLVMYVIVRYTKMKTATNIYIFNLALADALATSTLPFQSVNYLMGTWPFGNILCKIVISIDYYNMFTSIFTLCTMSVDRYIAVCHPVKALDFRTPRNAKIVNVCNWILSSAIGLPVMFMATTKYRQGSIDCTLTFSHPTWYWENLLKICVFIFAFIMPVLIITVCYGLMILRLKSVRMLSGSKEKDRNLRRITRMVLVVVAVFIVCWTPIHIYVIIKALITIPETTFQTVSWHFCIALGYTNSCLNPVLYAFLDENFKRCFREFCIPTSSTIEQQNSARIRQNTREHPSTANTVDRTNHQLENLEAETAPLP
T1 sequence (P32300 whole entry): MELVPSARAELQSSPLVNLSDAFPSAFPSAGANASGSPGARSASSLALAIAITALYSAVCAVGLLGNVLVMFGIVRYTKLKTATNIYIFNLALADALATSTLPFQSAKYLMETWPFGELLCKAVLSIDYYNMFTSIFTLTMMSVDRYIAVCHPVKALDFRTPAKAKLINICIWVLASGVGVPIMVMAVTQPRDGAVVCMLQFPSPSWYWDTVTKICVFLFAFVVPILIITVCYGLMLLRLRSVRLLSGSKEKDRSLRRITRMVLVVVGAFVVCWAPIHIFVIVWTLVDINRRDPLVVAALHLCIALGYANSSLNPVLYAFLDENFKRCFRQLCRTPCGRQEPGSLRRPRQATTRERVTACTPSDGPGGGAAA

One may read the melting point as the temperature, or range, at which the solid turns liquid. On to `CCC(=O)N1C2CCC1C1CCC2N1Cc1cnc2ccccc2n1` (as salt: hydrochloride) [Compound 59, 9-Propionyl-10-(quinoxalyn-2-ylmethyl)-9,10-diazatricyclo[4.2.1.1^2,5]decane], for which the melting point was found to be 128 °C. The same measure, in the same setting: in the case of `CCC(=O)N1C2CCC3C1CCC2N3CC=C1CCc2cc(Br)ccc21` (as salt: hydrochloride) it was 177 to 179 °C. Broadly, the Ki is the equilibrium dissociation constant of an inhibitor or competing ligand from its target. Low values mean higher affinity, high ones lower affinity. Take `CCC(=O)N1C2CCC1C1CCC2N1Cc1cnc2ccccc2n1` [Compound 59, 9-Propionyl-10-(quinoxalyn-2-ylmethyl)-9,10-diazatricyclo[4.2.1.1^2,5]decane]: the inhibitory constant (Ki) at δ-opioid receptor, on μ-opioid receptor and on κ-opioid receptor was more than 1000 nM throughout. Take `CCC(=O)N1C2CCC3C1CCC2N3CC=C1CCc2ccccc21` (as salt: hydrochloride): the melting point is 167 to 170 °C.

For `CCC(=O)N1C2CCC1C1CCC2N1CC=C1CCc2ccccc21` (as salt: hydrochloride), the melting point was in the range of 132 to 134 °C. Still for that read-out and setting: in the case of `CCC(=O)N1C2CCC1C1CCC2N1CC=C1CCc2cc(Cl)ccc21` (as salt: hydrochloride) it was 170 to 173 °C. As to `CCC(=O)N1C2CCC3C1CCC2N3Cc1cc2ccccc2[nH]1` [Compound 54, 2-Propionyl-7-(1H-indol-2-ylmethyl)-2,7-diazatricyclo[4.4.0.0^3.8]decane], the Ki was more than 1000 nM at δ-opioid receptor, 500 ± 45 nM at μ-opioid receptor and more than 1000 nM at κ-opioid receptor. For the same compound, the “fold lower μ-affinity compared to its isomer” value at μ-opioid receptor amounted to 23 fold. `CCC(=O)N1C2CCC1C1CCC2N1Cc1cc2ccccc2[nH]1` [Compound 53, 9-Propionyl-10-(1H-indol-2-ylmethyl)-9, 10-diazatricyclo[4.2.1.1^2.5]decane]: on δ-opioid receptor, the Ki is more than 1000 nM and the “affinity towards δ-receptors in words” value is given as “negligible affinity”. For the same compound, at μ-opioid receptor, the Ki was 22 ± 3 nM and the “μ-affinity / binding in words” value is recorded as “nanomolar range”. In addition, on κ-opioid receptor, the Ki was more than 1000 nM and the “affinity towards κ-receptors in words” value is “negligible affinity”. On to `CCC(=O)N1C2CCC1C1CCC2N1Cc1cc2ccccc2[nH]1` (as salt: hydrochloride) [Compound 53, 9-Propionyl-10-(1H-indol-2-ylmethyl)-9, 10-diazatricyclo[4.2.1.1^2.5]decane], for which the melting point turned out to be 106 °C.

Take `CCC(=O)N1C2CCC3C1CCC2N3CC=C1CCc2cc(F)ccc21` (as salt: hydrochloride) [Compound 25, 2-Propionyl-7-[(E)-1-(2-(5-fluoro-2,3-dihydro-1H-inden-1-ylidene)ethyl]-2,7-diazatricyclo[4.2.0.0^3,8]decane]: the melting point lay within 131 to 133 °C.

In turn, `CCC(=O)N1C2CCC1C1CCC2N1CC=C1CCc2cc(Br)ccc21` (as salt: hydrochloride) had a melting point of 167 to 170 °C. As for `CCC(=O)N1C2CCC3C1CCC2N3CC=C1CCc2cc(Cl)ccc21` (as salt: hydrochloride), the melting point lay in the range of 179 to 181 °C. The same measure, in the same setting: in the case of `CCC(=O)N1C2CCC1C1CCC2N1CC=C1CCc2cc(F)ccc21` (as salt: hydrochloride) it was 181 to 183 °C; in that of `CCC(=O)N1C2CCC3C1CCC2N3Cc1cc2ccccc2[nH]1` (as salt: hydrochloride) [Compound 54, 2-Propionyl-7-(1H-indol-2-ylmethyl)-2,7-diazatricyclo[4.4.0.0^3.8]decane], 54 °C.

As for `CCC(=O)N1C2CCC3C1CCC2N3Cc1ccc2ccccc2n1` [Compound 58, 2-Propionyl-7-(quinolyn-2-ylmethyl)-2,7-diazatricyclo[4.2.0.0^3,8]decane], the Ki is more than 1000 nM on δ-opioid receptor, 490 ± 46 nM on μ-opioid receptor and more than 1000 nM on κ-opioid receptor.
